Data taken from patent publication US20230263729A1, “POLY(ETHYLENE GLYCOL)-BLOCK-POLY(PROPYLENE SULFIDE) NANOCARRIER PLATFORM FOR ENHANCED EFFICACY OF IMMUNOSUPPRESSIVE AGENTS” (Northwestern University, priority 2019, published 2023).
Values after ≈ are worked out from the molar mass of the structure shown. Where two headings read alike, the source gives them in different places.

Assays:
[1] = Celastrol quantification by HPLC: solubility, encapsulation efficiency, loading capacity, release; type: physicochemical
Method: Celastrol quantification—Celastrol solubility, encapsulation efficiency, and loading capacity were all assessed using high performance liquid chromatography (HPLC) using a Thermo Scientific C18 reverse phase column, with dimethylformamide (DMF) as the mobile phase at 0.5 mL/min. Area under the curve quantification of celastrol absorbance at 280 nm was performed using Thermo Fisher Chromeleon 7 software. A celastrol standard curve was constructed, with good linearity between celastrol concentrations of 2 mg/mL to 12.5 μg/mL, with 6.25 μg/mL being too close to the limit of detection for inclusion in the standard curve.
To determine the loading capacity of celastrol in micelles, defined here as the highest achievable mass of celastrol that can be stably loaded into 1 mg of micelles in 100 μL of 1×PBS, 1 mg of celastrol was added to 1 mg of PEG45-b-PPS20-Benzyl polymer in 500 uL THF in an HPLC vial. THF was removed by vacuum desiccation and micelles were formed via thin film rehydration with 100 μL of 1×PBS. […] Both samples (column filtered and unfiltered) were then lyophilized and redissolved in 200 μL DMF and celastrol content was quantified via HPLC.
To determine the encapsulation efficiency of celastrol in micelles, defined as the percentage of the originally added celastrol mass that is stably encapsulated in micelles after filtration to remove unencapsulated celastrol, micelles were formed as described above with variable amounts of celastrol, and were filtered using an LH-20 column. Filtered micelles were lyophilized and redissolved in 200 μL DMF and celastrol content was quantified via HPLC.
To determine the solubility of celastrol in aqueous buffer, 1 mg of celastrol was added to a glass vial along with 10 mL of 1×PBS. […] The lyophilized powder was resuspended in 200 μL DMF and celastrol was quantified via HPLC.
Celastrol release from micelles into 1×PBS with or without oxidative trigger was determined as follows. […] Absorbance at 424 nm, an absorbance peak for celastrol, were taken using a SpectraMax M3 plate reader using a 96-well plate.

[2] = in vivo; cited from earlier work
[3] = system: RAW 264.7 cells; experiment: Cytotoxicity assay (calcein-AM / ethidium homodimer); type: cell-based
Method: Cytotoxicity assays—RAW 264.7 cells were plated into a 96 well black wall plates at 50,000 cells per well. Cells were then treated with Cel-MC or free celastrol, formulated as described above for the inhibition assays. After 16 h of incubation with free celastrol or Cel-MC formulations, cells were washed and incubated with 4 μM calcein-AM and 2 μM ethidium homodimer (Thermo Fisher), as described by the manufacturer. Readings were performed on an M3 plate reader, at excitation/emission wavelengths of 488/530 nm and 488/635 nm for calcein and ethidium homodimer, respectively. Readings were normalized as described by the manufacturer, accounting for background fluorescence and setting 100% viability for untreated cells and 0% viability for cells incubated with 100% methanol for 15 minutes.

[4] = system: NF-κB; experiment: NF-κB inhibition assay in RAW Blue cells (SEAP reporter); type: cell-based; conditions: read-out: half maximal effective concentration (EC50), NF-κB inhibition
Method: Inhibition assays—NF-κB inhibition by celastrol was assayed using RAW Blue cells (Invivogen), a stably transfected cell line derived from RAW 264.7 macrophage-like cells, which contain the gene for secreted alkaline phosphatase (SEAP) downstream of the NF-κB promoter. Cells were seeded into a 96 well plate at 50,000 cells per well. NF-κB signalling was induced using 100 ng/mL LPS, with celastrol-loaded micelles and free celastrol (0.1% THF in 1×PBS vehicle) added to the cells concurrent with LPS administration. All micelle formulations contained the same amount of polymer (15 mg/mL) but were loaded with variable amounts of celastrol, and free celastrol formulations were prepared to match the concentration of loaded celastrol within Cel-MC formulations. Free celastrol formulation were made by diluting celastrol stock solutions in THF with 1×PBS to reach the appropriate celastrol concentration and 0.1% THF in 1×PBS. Cells were incubated for 16 hours, as per assay instructions, before supernatant was collected for quantification of SEAP activity, as described by the manufacturer. Colorimetric quantification of SEAP activity was performed on an M3 plate reader (SpectraMax) at an absorbance wavelength of 630 nm.

[5] = system: RAW 264.7 cells; experiment: Apoptosis of RAW 264.7 cells with or without LPS; type: cell-based; conditions: 1 μg/mL celastrol, 4 h
Method: Celastrol has been investigated as a potential anti-cancer therapeutic due to its ability to induce cell death, and potentially binds to a number of proteins involved in apoptosis. As the manner of cell death can influence the downstream immune response, the onset of apoptosis upon treatment with celastrol was evaluated. Since NF-κB signalling in RAW 264.7 cells results in the secretion of TNF-α (FIG. 27C), an inducer of apoptosis in some contexts as well as cell survival and proliferation in others, the effect of the presence or absence of LPS during celastrol treatment on the induction of apoptosis or necrosis was assessed.

[6] = system: BMDCs; experiment: BMDC activation and maturation in vitro (surface markers, IL12p70 ELISA); type: cell-based, C57BL/6 mice; conditions: aVD 10^−8 M; LPS and IFN-γ stimulation
Method: Assessment of BMDC activation and maturation in vitro—BMDCs were cultured at a density of 1×10^6/ml and were incubated at 37° C. with 5% CO2 for 10 days. Free aVD, aVD-loaded PS (PS-aVD) or aVD-loaded P-D2-PEG5-PS (P-D2-PEG5-PS-aVD) with the aVD concentration of 10^−8 M were added when the media was refreshed on days 3 and 6. On day 7, 10 ng/ml murine recombinant interferon (IFN-γ) and 1 μg/ml LPS were added to stimulate dendritic cell maturation. At day 10, BMDCs were collected, washed with PBS and then incubated with anti-mouse CD16/CD32 to block FcRs and Zombie Aqua fixable viability dye to determine live/dead cells for 20 min. Cells were washed with PBS and stained with antibody cocktail (CD11c, […] CD80, and CD86) (Table 1) for 35 min at 4° C. BMDC maturation was determined by characterizing the cell surface marker expression using FACSDiva on a LSRII flow cytometer (BD Biosciences). Over 20,000 events were recorded for each sample and data were analyzed with FlowJo software. Different concentrations of P-D2-PEG5-PS-aVD (aVD concentration=0, 10^−9, and 10^−8 M) were also investigated on BMDC maturation using the same procedure described above. […] IL12p70 secretion in supernatant of the cell culture in the last 48 h were determined by enzyme-linked immunosorbent assay (ELISA) following the manufacturer's instructions (Fisher Thermo Scientific).

[7] = system: atherosclerotic plaque; conditions: orally to mice, total dose 4800 ng over 12 weeks; cited from earlier work
[8] = system: atherosclerotic lesions; experiment: Atherosclerotic lesion quantification and immunohistochemistry after 8 weeks treatment; type: in vivo, ApoE−/− mice; conditions: total aVD dose 800 ng over 8 weeks
Method: Treatment—Male ApoE^−/− mice at 8-weeks of age were fed a high-fat diet (HFD, Harlan Teklad TD.88137, 42% kcal from fat) for 4 weeks. Treatments were performed from week 12 and 100 μl of different treatments: 1, PBS (control); 2, free aVD (1 μg/ml); 3, PS-aVD; 4, P-D2-PEG5-PS-aVD; 5, P210/P-D2-PEG5-PS-aVD (2, 3, 4, 5 groups with the same aVD concentration of 1 μg/ml) were subsequently i.v. administrated every week for 8 weeks. During those weeks, mice were maintained on a high-fat diet, and the activities and body weight was monitored. In vivo experiments were performed with group sizes of N=5-6 mice per group and then independently repeated for a total of N=10-12 mice per group.
Atherosclerotic lesion quantification and immunohistochemistry—For atherosclerotic lesion analysis, mice were anesthetized and aortas were carefully harvested after perfusion with PBS under a microscope. The heart with ascending aorta was fixed with 4% paraformaldehyde (PFA)/5% sucrose in PBS solution 12 h at 4° C. […] For quantitative analysis of atherosclerotic lesions, 5-7 separate cross-sections from each mouse were stained with Oil Red 0 (ORO) (Sigma) for 1 h at 37° C. and 4′,6-diamidino-2-phenylindole (DAPI) for 5 min. […] An in-house software written in Python was developed for automated and quantitative image analysis (FIG. 16) […]

| SMILES | theoretical solubility in nanocarriers, times higher than unencapsulated celastrol [1] | theoretical celastrol ‘solubility’ in 1×PBS when loaded in PEG-b-PPS nanocarriers ([1]; 200 mg/mL of polymer, loading capacity 22%) | solubility at 1 h ([1]; aqueous buffer, thermodynamic from solid, detected in 1 mL of 1×PBS at 37 C, read-out: celastrol dissolved in aqueous buffer (solubility)) | serum half-life (T1/2β) [2] | cell viability as the dosage of celastrol is decreased [3] | cytotoxicity to RAW 264.7 cells ([3]; 0.8 mg/mL celastrol) | EC50 ([4]; 100 ng/mL LPS, 16 hours) | EC50 ([4]; LPS) | apoptotic cells ([5]; in the absence of LPS) | apoptotic cells ([5]; in the presence of LPS) | expression of MHC-II, CD80 and CD86 by stimulated BMDCs [6] | decrease in plaque area [7] | reduction in macrophage accumulation [7] | improvements in plaque area and macrophage content at the same dosage [8] |
| --- | --- | --- | --- | --- | --- | --- | --- | --- | --- | --- | --- | --- | --- | --- |
| CC1=C(O)C(=O)C=C2C1=CC=C1[C@@]2(C)CC[C@@]2(C)[C@@H]3C[C@](C)(C(=O)O)CC[C@]3(C)CC[C@]12C [celastrol] | over 10,000 times | 44 mg/mL | 3.5 µg/mL (≈ 7.77 µM) | 8 to 10 h | not | highly cytotoxic | 0.2 µg/mL (≈ 0.444 µM) | 0.2 µg/mL (≈ 0.444 µM) | 16.5±1.8% | 37.5±4.4% |  |  |  |  |
| C=C1/C(=C\C=C2/CCC[C@]3(C)[C@@H]([C@H](C)CCCC(C)(C)O)CC[C@@H]23)C[C@@H](O)C[C@@H]1O [aVD, 1, 25-Dihydroxyvitamin D3] |  |  |  |  |  |  |  |  |  |  | significantly decreased expression | 39% | 29% | no |
